Source: article PMC6675120, “Potent and selective inhibitors for M32 metallocarboxypeptidases identified from high-throughput screening of anti-kinetoplastid chemical boxes” (PLoS Neglected Tropical Diseases, 2019)

Key:
TcMCP-1 = TcMCP-1 (Trypanosoma cruzi, UniProt Q6ZXC0); test: Continuous fluorogenic (FRET) TcMCP-1 assay with Abz-LKFK(Dnp)-OH, primary and secondary screening; format: biochemical; details: for TcMCP-1 2º/1º ratio: secondary (31,5 µM) / primary (25 µM) inhibition; for TcMCP-1 Primary screening Inhibition (%): single inhibitor concentration 25 µM; for TcMCP-1 Secondary screening Inhibition (%): single inhibitor concentration 31,5 µM; for TcMCP-1 Hill Slope: four-parameter Hill fit of dose-response curve
TcMCP-1, sequence (Q6ZXC0 entry or part of it): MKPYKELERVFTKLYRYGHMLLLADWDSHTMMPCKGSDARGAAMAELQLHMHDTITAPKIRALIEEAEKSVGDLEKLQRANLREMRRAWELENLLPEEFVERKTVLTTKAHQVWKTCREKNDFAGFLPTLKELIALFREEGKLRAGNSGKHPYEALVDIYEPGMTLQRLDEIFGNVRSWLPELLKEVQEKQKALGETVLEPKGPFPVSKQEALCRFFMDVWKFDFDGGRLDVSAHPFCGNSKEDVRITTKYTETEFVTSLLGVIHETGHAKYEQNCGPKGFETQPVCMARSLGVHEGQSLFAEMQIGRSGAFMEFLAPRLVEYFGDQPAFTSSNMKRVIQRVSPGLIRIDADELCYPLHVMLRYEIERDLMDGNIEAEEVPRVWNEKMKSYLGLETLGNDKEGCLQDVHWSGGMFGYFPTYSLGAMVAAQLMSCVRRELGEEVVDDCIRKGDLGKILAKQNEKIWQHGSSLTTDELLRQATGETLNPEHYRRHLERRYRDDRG
Description: (§1) TcMCP-1 (MEROPS ID: M32.003) and TbMCP-1 were expressed as GST fusion proteins in E. coli BL21 (DE3) Codon Plus and purified as previously described.
(§2) TbMCP-1 and TcMCP-1 activities were assayed fluorometrically with Abz-RFFK(Dnp)-OH and Abz-LKFK(Dnp)-OH substrates, respectively, in 100 mM MOPS pH 7,2 containing 0,01% Triton X-100. Assays were performed in solid black 384-well plates (final reaction volume ~80 μL) and the hydrolysis of the K(Dnp)-OH group was monitored continuously at 30 °C with a Beckman Coulter DTX 880 Multimode Reader (Radnor, Pennsylvania, USA) using standard 320 nm excitation and 420 nm emission filter set.
(§3) In all cases, EDTA (final concentration 31,25 mM) was used as positive inhibition control.
(§4) Then, 40 μL of 100 mM MOPS, 0,01% Triton X-100 pH 7,2 containing TbMCP-1 (2,50 nM) or TcMCP-1 (0,34 nM) were added to each well, plates were homogenized (30 seg, orbital, medium intensity) and each well subjected to a single autofluorescence read (ex/em = 320/420 nm). Plates were incubated in darkness for 15 min at 30 °C and then 40 μL of Abz-RFFK(Dnp)-OH (4 μM) or Abz-LKFK(Dnp)-OH (0,8 μM) in assay buffer were added to each well to start the reaction. After homogenization (30 seg, orbital, medium intensity), the fluorescence of the Abz group (ortho-aminobenzoic acid) (ex/em = 320/420 nm) was acquired kinetically for each well (8 read cycles, one cycle every 300 seconds). Considering our previous experiences, the auto-fluorescent cut-off was arbitrarily set at 2x10^5 RFU to discard highly interfering compounds. All compounds were assayed in singlet (without replicates) due to the limited availability of stocks.
(§5) Raw screening measurements were used to determine the slope (dF/dt) of progression curves by linear regression for control and non-interfering compound wells. In the case of control-dependent hit selection criteria, percent inhibition percentage (%Inh) was calculated for each compound according to the following equation: Inh=100∙[1−(dF/dt^WELL−μ^C−)/(μ^C+−μ^C−)] (1) where dF/dt^WELL represents the slope of each compound well and μ^C+ and μ^C− the average of MCP (no-inhibition) and substrate (no-enzyme) controls, respectively.
(§6) Compounds selected from primary screening were re-tested in a dose-response manner (final concentration ranging from 7,5 to 62,5 μM) using identical assay conditions. To avoid any positional and/or association bias, we randomly defined the row position for each compound. One μL of compounds stock (10 mM in DMSO) and EDTA (31,25 mM) were added to the first well of column 1, followed by addition of 40 μL of 100 mM MOPS, 0,01% Triton X-100 pH 7,2 buffer. After addition of 20 μL of the same buffer to subsequent wells of the plate, 22 serial 2-fold dilutions were made horizontally. The last two positions of every row were used, alternatively, for C^+ and C^− controls to reduce any positional and/or association bias. Then, 20 μL of activity buffer containing TbMCP-1 or TcMCP-1 were added to each well, except for those corresponding to C^−; completed with 20 μL of activity buffer. After homogenization, 15 minutes of incubation at 30°C and autofluorescence measurement, the substrate (in activity buffer) was added to the previous mix. Data collection and processing were performed exactly as described above. Percentage of M32 MCPs residual activity was calculated for each condition according to the following equation: %Res.Act^MCP=100∙[(dF/dt^WELL−μ^C−)/(μ^C+−μ^C−)] (2) where dF/dt^WELL represents the slope of each compound well and μ^C+ and μ^C− the average of MCP (no-inhibition) and substrate (no-enzyme) controls, respectively.

TbMCP-1 = TbMCP-1 (Trypanosoma brucei, UniProt Q386R0); test: Continuous fluorogenic (FRET) TbMCP-1 assay with Abz-RFFK(Dnp)-OH, primary and secondary screening; format: biochemical; details: for TbMCP-1 Hill Slope: four-parameter Hill fit of dose-response curve; for TbMCP-1 2º/1º ratio: secondary (31,5 µM) / primary (25 µM) inhibition; for TbMCP-1 Primary screening Inhibition (%): single inhibitor concentration 25 µM; for TbMCP-1 Secondary screening Inhibition (%): single inhibitor concentration 31,5 µM
TbMCP-1, sequence (Q386R0 entry or part of it): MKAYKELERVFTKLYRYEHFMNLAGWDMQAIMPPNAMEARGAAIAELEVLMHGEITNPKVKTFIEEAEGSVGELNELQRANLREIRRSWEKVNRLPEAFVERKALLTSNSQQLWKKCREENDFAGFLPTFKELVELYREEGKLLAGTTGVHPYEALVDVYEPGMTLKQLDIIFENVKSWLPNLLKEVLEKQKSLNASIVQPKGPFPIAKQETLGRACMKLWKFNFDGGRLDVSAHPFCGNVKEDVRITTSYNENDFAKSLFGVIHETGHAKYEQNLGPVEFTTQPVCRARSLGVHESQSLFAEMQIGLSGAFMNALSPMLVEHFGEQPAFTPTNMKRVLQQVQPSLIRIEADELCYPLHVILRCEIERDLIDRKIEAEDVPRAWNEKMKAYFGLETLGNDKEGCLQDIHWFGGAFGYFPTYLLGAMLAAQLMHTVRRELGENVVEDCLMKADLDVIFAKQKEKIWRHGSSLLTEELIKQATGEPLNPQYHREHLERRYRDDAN
Description: as §1, §2, §3, §4, §5
as §6, with “To” for “Compounds selected from primary screening were re-tested in a dose-response manner (final concentration ranging from 7,5 to 62,5 μM) using identical assay conditions. To”

SMILES | TcMCP-1 2º/1º ratio (TcMCP-1) | TcMCP-1 Primary screening Inhibition (%) (TcMCP-1) | TcMCP-1 Secondary screening Inhibition (%) (TcMCP-1) | IC50 (TcMCP-1) | TcMCP-1 Hill Slope (TcMCP-1) | IC50 (TbMCP-1) | TbMCP-1 Hill Slope (TbMCP-1) | TbMCP-1 2º/1º ratio (TbMCP-1) | TbMCP-1 Primary screening Inhibition (%) (TbMCP-1) | TbMCP-1 Secondary screening Inhibition (%) (TbMCP-1)
COc1cccc(S(=O)(=O)Nc2ccc3c(c2)CC(N2CCC(NC(=O)C4CC4)CC2)C3)c1 (centres unmarked) [TCMDC-143583] | -0,15 | 77,30% | -11,25% | – | – | – | – | – | – | –
CN(C)c1ccc(-c2cc3nccnc3c(OC[C@H]3CCCNC3)n2)cn1.Cl [TCMDC-143408] | 1,06 | 46,88% | 49,75% | 32.9 µM | -1,153 | – | – | – | – | –
O=C(N[C@H](CO)c1ccccc1)c1ccc(-c2c[nH]c3nccc(C(F)(F)F)c23)s1 [TCMDC-143254] | – | – | – | – | – | 43.4 µM | -0,8163 | 0,78 | 45,94% | 35,87%
COc1cccc(-c2cc(C(F)(F)F)nc(-n3ccc([N+](=O)[O-])n3)n2)c1 [TCMDC-143105] | 0,34 | 52,36% | 17,76% | – | – | – | – | – | – | –
Cc1c([N+](=O)[O-])c(C(=O)Nc2sc3c(c2C#N)CCC(C)C3)nn1C (centres unmarked) [TCMDC-143155] | – | – | – | – | – | – | – | 0,23 | 44,57% | 10,36%
O=C(NCC1CCCCC1)c1cc(=O)c2ccccc2o1 [TCMDC-123621] | – | – | – | – | – | – | – | -0,05 | 44,99% | -2,11%
CC(=O)Nc1cccc(Nc2ncnc3nc[nH]c23)c1 [TCMDC-143399] | – | – | – | – | – | – | – | 0,19 | 43,27% | 8,15%
COc1ccc(S(=O)(=O)Nc2ccc(CN3CCN(C(=O)c4cccc(C#N)c4)CC3)cc2)cc1.O=C(O)C(F)(F)F [TCMDC-143496] | 1,09 | 41,52% | 45,37% | 34.9 µM | -0,822 | – | – | – | – | –
N#Cc1cc([N+](=O)[O-])ccc1NC1CCCCCC1 [TCMDC-143143] | – | – | – | – | – | 21.8 µM | -1,466 | 1,61 | 41,27% | 66,27%
CC(C)Oc1ccc(C(=O)Nc2ccc(N3CCOCC3)c(Cl)c2)cc1 [TCMDC-143592] | 1,03 | 56,55% | 58,11% | 27.9 µM | -0,8919 | – | – | – | – | –
CCC1Oc2cc(S(=O)(=O)N(C)CC(=O)N3CCc4ccccc4C3)c(C)cc2NC1=O (centres unmarked) [TCMDC-143332] | – | – | – | – | – | 23.3 µM | -1,063 | 1,03 | 55,90% | 57,63%
Cc1ccc2c(c1)-c1onc(C(=O)N3CCCCC3c3cccnc3)c1CO2 (centres unmarked) [TCMDC-143191] | – | – | – | – | – | 16.1 µM | -1,267 | 0,78 | 88,97% | 69,40%
